Source: patent US20210189503A1, “BIOMARKERS FOR DETERMINING RESPONSIVENESS OF A CANCER TO PI3K INHIBITORS” (MEMORIAL SLOAN-KETTERING CANCER CENTER, priority 2018, published 2021)
Each block holds one compound with its values, some of them ahead of it.

Experiments:
[1] = system: PIK3CA mutant MCF10A cells; test: Cell viability / cell inhibition by PI3K inhibitors (CellTiter-Glo, dose-response survival); conditions: for sensitivity of cell growth to PI3Kα inhibition: E545K and H1047R major hotspot mutants compared to minor mutants and WT
[2] = system: recombinant single and cis mutant PI3Kα complexes; test: IC50 determination of recombinant PI3K (Transcreener ADP2 fluorescence intensity assay); conditions: among the recombinant single and cis mutant PI3Kα complexes
[3] = system: PI3K pathway signaling in PIK3CA mutant MCF10A cells; test: Western blotting of PI3K effectors, MCF10A cells; conditions: BYL719 1 μM, 24 hours, serum starvation, vs single mutant cells
[4] = system: ER+ metastatic breast cancer; test: Phase 1 clinical trial NCT01870505 of alpelisib (BYL719) plus aromatase inhibitor, PFS analysis; type: in vivo, human; conditions: with an aromatase inhibitor; for progression free survival: tumor NGS (FIG. 18C); for PFS (duration of response to PI3K inhibition): tumor and ctDNA NGS (FIG. 17E)
Experimental: Progression-free survival analysis was performed on patients enrolled in NCT01870505, a phase I clinical trial of BYL719 (alpelisib) plus letrozole or exemestane for patients (n=51) with hormone-receptor positive locally-advanced unresectable or metastatic breast cancer. 44/51 patients were analyzed for NGS of their tumors (MSK-IMPACT) and/or NGS of their ctDNA (Guardant) and were included in the analysis. Progression free survival was calculated and was compared between dual and single mutant patients. Clinical benefit rates (complete response, partial response or stable disease) were calculated and were compared between dual and single mutant patients using Fisher's exact test.
(§1) Retrospective PFS analysis was performed on tumors from a large breast cancer dataset (n=1918) sequenced by MSK-IMPACT ((Razavi et al., Cancer Cell 34, 427-438 e426 (2018)). Tumors were included in analysis if both pre- and post-endocrine therapy (aromatase inhibitor or fulvestrant) biopsies confirmed WT, single PIK3CA mutation, or multiple PIK3CA mutations. Kaplan-Meier curves were generated for PFS after firstline aromatase inhibitor or firstline fulvestrant therapy. PFS analysis was performed on patients enrolled in NCT01870505, a phase 1 clinical trial of alpelisib plus letrozole or exemestane for patients with hormone-receptor positive locally-advanced unresectable or metastatic breast cancer. 46/51 patients had biopsy samples that confirmed PIK3CA mutant or WT alleles by tumor NGS, and these 46 patients were included in the final analysis.

[5] = system: PI3K pathway signaling in PIK3CA mutant NIH-3T3 cells; test: Western blotting of PI3K effectors, NIH-3T3 cells; type: cell-based, mouse; conditions: BYL719 1 μM, 24 hours, serum starvation, vs single mutant cells
[6] = system: PIK3CA mutant and WT breast cancers; test: Retrospective PFS analysis on endocrine therapy (aromatase inhibitor or fulvestrant); type: in vivo, human
Experimental: as §1

[7] = system: metastatic ER-positive PIK3CA mutant breast cancer; test: […] phase III clinical trial of taselisib with fulvestrant, ctDNA PIK3CA analysis; type: in vivo, human; conditions: for overall response rate: taselisib arm (with fulvestrant)
Text: The present disclosure investigated the effects of multiple PIK3CA mutations on clinical response to PI3Kα inhibitors in metastatic breast cancer. The present disclosure analyzed response data from […], a phase III registrational clinical trial that tested the efficacy of the PI3Kα inhibitor taselisib (GDC-0032), with fulvestrant (an estrogen receptor [ER] degrader) in metastatic ER-positive PIK3CA mutant breast cancer. This is the largest randomized clinical study testing a PI3Kα inhibitor (631 patients).
Many patients with metastatic ER-positive breast cancer enrolled in this trial had bone metastases, which must be decalcified to be analyzed by NGS, which render DNA sequencing particularly challenging (Singh et al., Ann Diagn Pathol 17, 322-326 (2013)). Thus, the present disclosure used circulating tumor DNA (ctDNA), which has been utilized in many breast cancer clinical trials (Baselga et al., Lancet Oncol 18, 904-916 (2017); Andre et al., N Engl J Med 380, 1929-1940 (2019); Baselga et al., N Engl J Med 366, 520-529 (2012); Turner et al., N Engl J Med 373, 209-219 (2015)), to detect the presence of multiple mutations. Of the 631 patients on the trial, 598 had plasma samples available for analysis, of which 508 were adequate for testing (FIG. 19A). Samples were tested using the Foundation One liquid assay, which sequences the entire PIK3CA gene. Of the 339 patients with detected PIK3CA mutations, 66 (19%) had 2 or more PIK3CA mutations.
For analysis of the […] clinical trial (Baselga, Journal of Clinical Oncology, 2018, 36, no. 18_suppl.) patient ctDNA samples (n=631), 508 patient samples met quality control parameters and were analyzed by Foundation Medicine One Liquid assay (Clark et al., J Mol Diagn 20, 686-702 (2018)) which sequences […] of PIK3CA and can detect mutations at amino acid positions 545, 1047, 453, 726, and 1043 (FIG. 24). 339 samples were identified with PIK3CA mutations, of which 66 contained two or more PIK3CA mutations. Patients with measurable disease from the ctDNA PIK3CA mutant cohort, on the taselisib arm, were analyzed based on the percentage change in the sum of longest diameter (SLD) of target lesion from baseline, and were tabulated by waterfall plot. Patients with both measurable and nonmeasurable disease from the ctDNA PIK3CA mutant cohort were assessed on the placebo and taselisib arms for overall response rate (defined as tumor shrinkage >30%). 95% CI for rates were constructed using the Blyth-Still-Casella method. The CI for the difference in ORRs between the two treatment arms were determined using the normal approximation to the binomial distribution. Response rates in the treatment arms were compared (p-value) using the stratified Cochran-Mantel-Haenszel test.

[8] = target: p85α regulatory subunit of PI3Kα (PIK3R1), full length human, hexahistidine-tagged at the N-terminus (UniProt P27986)
Chain of p85α regulatory subunit of PI3Kα (PIK3R1), full length human, hexahistidine-tagged at the N-terminus (P27986 whole entry, looked up, tested part not stated): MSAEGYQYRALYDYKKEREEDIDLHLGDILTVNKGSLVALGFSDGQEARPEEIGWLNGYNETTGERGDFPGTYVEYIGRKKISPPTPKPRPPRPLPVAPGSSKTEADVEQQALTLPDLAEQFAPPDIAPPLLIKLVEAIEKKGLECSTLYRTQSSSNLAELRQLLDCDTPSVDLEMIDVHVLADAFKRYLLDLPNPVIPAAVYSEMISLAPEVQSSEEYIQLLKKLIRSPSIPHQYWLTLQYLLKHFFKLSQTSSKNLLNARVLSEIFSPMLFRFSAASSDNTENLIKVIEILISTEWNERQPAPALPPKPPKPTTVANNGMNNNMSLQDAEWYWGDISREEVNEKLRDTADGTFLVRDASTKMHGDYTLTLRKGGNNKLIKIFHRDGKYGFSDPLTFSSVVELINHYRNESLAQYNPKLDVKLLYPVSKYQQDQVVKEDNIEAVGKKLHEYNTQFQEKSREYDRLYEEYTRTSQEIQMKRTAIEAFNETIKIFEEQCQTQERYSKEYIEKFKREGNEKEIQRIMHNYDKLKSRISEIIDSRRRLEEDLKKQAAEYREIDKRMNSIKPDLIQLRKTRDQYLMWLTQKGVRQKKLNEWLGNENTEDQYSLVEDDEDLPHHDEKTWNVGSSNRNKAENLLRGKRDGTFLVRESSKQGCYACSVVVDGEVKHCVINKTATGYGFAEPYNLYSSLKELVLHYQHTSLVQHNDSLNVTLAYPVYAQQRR

- IC50 values, recombinant PI3Kα complexes [2]: similar
Compound: C[C@H](Nc1ccc2c(c1)OCCn1cc(N3C(=O)OC[C@H]3C(F)F)nc1-2)C(N)=O [GDC-0077]
- sensitivity of cell growth to PI3Kα inhibition ([1]; MCF10A): more sensitive
- IC50 ([1]; read-out: IC50 [GDC-0077] of MCF10A E545K cells, MCF10A E545K cells, per FIG. 6G): 0.0625 µM

Compound: Cc1nc(NC(=O)N2CCC[C@H]2C(N)=O)sc1-c1ccnc(C(C)(C)C(F)(F)F)c1 [alpelisib]
- compound mutant PI3K pathway signaling on PI3K inhibition [3]: decreases to similar levels
- progression free survival ([4]; WT PIK3CA tumors): 7.5 weeks
- progression free survival ([4]; double PIK3CA mutant tumors): 48 weeks
- PFS (duration of response to PI3K inhibition) ([4]; dual PIK3CA mutant patients): 48 weeks
- patients with clinical benefit rate >30 weeks ([4]; dual mutant tumors, p=0.044 vs single): 67%
- PFS (duration of response to PI3K inhibition) ([4]; single PIK3CA mutant patients): 17 weeks
- progression free survival ([4]; single PIK3CA mutant tumors): 20 weeks
- patients with clinical benefit rate >30 weeks ([4]; single mutant tumors): 23%
- median PFS, double mutant vs single mutant or WT tumors ([4]; not statistically significant): longer median PFS
- cell viability ([1]; Example 1, compound PIK3CA mutants vs single mutants): more significant decrease in cell viability
- sensitivity of mutations in trans ([1]; MCF10A E726K/H1047R in trans compared to cis mutants): less sensitive
- sensitivity of mutations in trans ([1]; MCF10A E726K/H1047R in trans compared to the single major mutant): no more sensitive
- sensitivity of cell growth to PI3Kα inhibition ([1]; MCF10A): more sensitive
- fold of inhibition of cell growth ([1]; MCF10A, E545K- and H1047R-containing compound mutants vs single mutants): increased fold of inhibition
- compound mutant PI3K pathway signaling on PI3K inhibition [5]: decreases to similar levels
- IC50 values, recombinant PI3Kα complexes [2]: similar

Compound: CO[C@H]1C[C@@H]2CC[C@@H](C)[C@@](O)(O2)C(=O)C(=O)N2CCCC[C@H]2C(=O)O[C@H]([C@H](C)C[C@@H]2CC[C@@H](OCCO)[C@H](OC)C2)CC(=O)[C@H](C)/C=C(\C)[C@@H](O)[C@@H](OC)C(=O)[C@H](C)C[C@H](C)/C=C/C=C/C=C/1C [everolimus]
- sensitivity to downstream PI3K pathway inhibitor ([1]; MCF10A, cis mutants compared to single mutants, serum starvation 4 days): more sensitive

Compound: C[C@]12CC[C@@H]3c4ccc(O)cc4C[C@@H](CCCCCCCCC[S+]([O-])CCCC(F)(F)C(F)(F)F)[C@H]3[C@@H]1CC[C@@H]2O (stereo partly drawn) [fulvestrant]
- PFS of dual mutant patients vs patients with WT tumors ([6]; fulvestrant): worse PFS
- PFS of patients with dual PIK3CA-mutant tumors vs single mutant or WT tumors ([6]; fulvestrant alone): do not have improved

Compound: Cc1nc(-c2cn3c(n2)-c2ccc(-c4cnn(C(C)(C)C(N)=O)c4)cc2OCC3)n(C(C)C)n1 [taselisib]
- overall response rate ([7]; ctDNA PIK3CA mutant total population): 20.3%
- overall response rate ([7]; multiple ctDNA PIK3CA mutant subpopulation): 30.2%
- overall response rate ([7]; single ctDNA PIK3CA mutant subpopulation): 18.1%
- tumor shrinkage, multiple vs single mutant tumors ([7]; taselisib arm, waterfall plot (FIG. 19B)): tumor shrinkage more

Compound: p110α E545K, untagged, full length human
- thermal shift assay (soluble p110α by Western blot across a temperature gradient) [8]: Among single mutants, E545K is the most thermally unstable
